Results taken from US10392368B2, “Pyrazolo and triazolo bicyclic compounds as JAK kinase inhibitors” (THERAVANCE BIOPHARMA R&D IP, LLC, priority 2017, dated 2019).
Like-named read-outs stand apart in the source and are kept apart here.

Columns and labels:
[1] = system: IL-2 stimulated pSTAT5 in Tall-1 T cells; experiment: Cellular JAK3 potency assay: inhibition of IL-2 stimulated pSTAT5 in Tall-1 T cells; type: cell-based, human; conditions: for IC50: Homo sapiens, read-out: Tall-1 (pIC50) (converted)
Summary of the method: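 Tall-1 human T cells were preincubated with compound for 1 h at 37° C, then stimulated with IL-2 (300 ng/ml final) for 30 min. STAT5 phosphorylation in lysates was read by AlphaLisa bead emission, and IC50 from inhibition curves is given as pIC50 (mean±SD).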

JAK2 = target: T1, JAK2 (Homo sapiens, UniProt O60674); experiment: Biochemical JAK2 kinase assay (LanthaScreen); conditions: for Ki: read-out: JAK 2 (pKi) (converted)
T1 construct: GST; purchased Life Technologies
Summary of the method: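 pKi values derive from pIC50 via Cheng-Prusoff, with IC50 from a 4-parameter fit of percent-inhibition TR-FRET data using Tb-anti-pSTAT1 (pTyr701) detection. Compound, GST-JAK2 and GFP-STAT1 substrate were pre-incubated 1 h, then ATP started a 1 h ambient reaction (HEPES pH 7.5, 10 mM MgCl2, 1% DMSO).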

JAK1 = target: T2, JAK1 (Homo sapiens, UniProt P23458); experiment: Biochemical JAK1 kinase assay (LanthaScreen); conditions: for Ki: read-out: JAK 1 (pKi) (converted)
T2 construct: GST; purchased Life Technologies
Summary of the method: (§1)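 TR-FRET readout (520/495 nm) using Tb-labelled pTyr701 antibody after EDTA stop, following 1 h ATP-started phosphorylation of GFP-STAT1 by recombinant GST-JAK. Compounds preincubated 1 h with enzyme and substrate; pIC50 from 4-parameter fit, Cheng-Prusoff gives pKi.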

JAK3 = target: T3, JAK3 (Homo sapiens, UniProt P52333); experiment: Biochemical JAK3 kinase assay (LanthaScreen); parameters: GST; purchased Life Technologies; conditions: for Ki: read-out: JAK 3 (pKi) (converted)
T3 sequence (P52333 1-1124): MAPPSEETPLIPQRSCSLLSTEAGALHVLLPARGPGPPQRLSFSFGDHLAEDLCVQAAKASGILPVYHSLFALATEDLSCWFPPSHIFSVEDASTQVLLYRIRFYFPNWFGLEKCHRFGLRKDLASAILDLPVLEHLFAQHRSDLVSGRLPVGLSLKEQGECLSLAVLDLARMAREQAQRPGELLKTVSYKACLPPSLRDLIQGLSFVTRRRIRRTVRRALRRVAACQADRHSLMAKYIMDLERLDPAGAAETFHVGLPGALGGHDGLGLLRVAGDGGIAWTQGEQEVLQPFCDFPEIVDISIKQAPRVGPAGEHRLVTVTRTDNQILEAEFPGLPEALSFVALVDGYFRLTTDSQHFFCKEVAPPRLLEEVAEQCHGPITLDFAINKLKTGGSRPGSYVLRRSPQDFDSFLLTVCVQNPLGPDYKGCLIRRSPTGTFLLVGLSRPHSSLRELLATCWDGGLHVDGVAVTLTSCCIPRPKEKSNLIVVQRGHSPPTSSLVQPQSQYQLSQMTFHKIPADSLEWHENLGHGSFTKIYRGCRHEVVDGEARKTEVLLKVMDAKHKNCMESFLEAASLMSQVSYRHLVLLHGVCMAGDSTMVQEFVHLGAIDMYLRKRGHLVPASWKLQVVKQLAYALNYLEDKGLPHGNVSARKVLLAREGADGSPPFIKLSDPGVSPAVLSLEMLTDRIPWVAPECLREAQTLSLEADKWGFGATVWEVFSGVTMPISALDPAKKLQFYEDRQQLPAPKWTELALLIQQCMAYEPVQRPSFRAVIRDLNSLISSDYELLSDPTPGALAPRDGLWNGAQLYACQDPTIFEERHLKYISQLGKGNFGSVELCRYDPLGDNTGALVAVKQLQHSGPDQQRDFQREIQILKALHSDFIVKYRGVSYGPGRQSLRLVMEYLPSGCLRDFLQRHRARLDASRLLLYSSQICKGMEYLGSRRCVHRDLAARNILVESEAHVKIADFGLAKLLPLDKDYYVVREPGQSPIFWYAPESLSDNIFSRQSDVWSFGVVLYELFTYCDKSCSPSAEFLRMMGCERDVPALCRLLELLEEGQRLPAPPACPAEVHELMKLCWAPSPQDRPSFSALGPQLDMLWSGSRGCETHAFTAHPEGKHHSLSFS
Summary of the method: as §1

Tyk2 = target: T4, Tyk2 (Homo sapiens, UniProt P29597); experiment: Biochemical Tyk2 kinase assay (LanthaScreen); conditions: for Ki: read-out: Tyk 2 (pKi) (converted)
T4 construct: GST; purchased Life Technologies
Summary of the method: as §1

[2] = IL-2 stimulated pSTAT5, Tall-1 T cells
[3] = selectivity JAK3 over JAK1, difference of pKi
[4] = IL-2 stimulated pSTAT5 in Tall-1 T cells
[5] = selectivity: difference of pKi JAK3 and pKi JAK1
[6] = TALL-1, IL-2 stimulated pSTAT5, Tall-1 T cells
[7] = TALL-1, IL-2 stimulated pSTAT5 in Tall-1 T cells

T4 sequence (P29597 whole entry): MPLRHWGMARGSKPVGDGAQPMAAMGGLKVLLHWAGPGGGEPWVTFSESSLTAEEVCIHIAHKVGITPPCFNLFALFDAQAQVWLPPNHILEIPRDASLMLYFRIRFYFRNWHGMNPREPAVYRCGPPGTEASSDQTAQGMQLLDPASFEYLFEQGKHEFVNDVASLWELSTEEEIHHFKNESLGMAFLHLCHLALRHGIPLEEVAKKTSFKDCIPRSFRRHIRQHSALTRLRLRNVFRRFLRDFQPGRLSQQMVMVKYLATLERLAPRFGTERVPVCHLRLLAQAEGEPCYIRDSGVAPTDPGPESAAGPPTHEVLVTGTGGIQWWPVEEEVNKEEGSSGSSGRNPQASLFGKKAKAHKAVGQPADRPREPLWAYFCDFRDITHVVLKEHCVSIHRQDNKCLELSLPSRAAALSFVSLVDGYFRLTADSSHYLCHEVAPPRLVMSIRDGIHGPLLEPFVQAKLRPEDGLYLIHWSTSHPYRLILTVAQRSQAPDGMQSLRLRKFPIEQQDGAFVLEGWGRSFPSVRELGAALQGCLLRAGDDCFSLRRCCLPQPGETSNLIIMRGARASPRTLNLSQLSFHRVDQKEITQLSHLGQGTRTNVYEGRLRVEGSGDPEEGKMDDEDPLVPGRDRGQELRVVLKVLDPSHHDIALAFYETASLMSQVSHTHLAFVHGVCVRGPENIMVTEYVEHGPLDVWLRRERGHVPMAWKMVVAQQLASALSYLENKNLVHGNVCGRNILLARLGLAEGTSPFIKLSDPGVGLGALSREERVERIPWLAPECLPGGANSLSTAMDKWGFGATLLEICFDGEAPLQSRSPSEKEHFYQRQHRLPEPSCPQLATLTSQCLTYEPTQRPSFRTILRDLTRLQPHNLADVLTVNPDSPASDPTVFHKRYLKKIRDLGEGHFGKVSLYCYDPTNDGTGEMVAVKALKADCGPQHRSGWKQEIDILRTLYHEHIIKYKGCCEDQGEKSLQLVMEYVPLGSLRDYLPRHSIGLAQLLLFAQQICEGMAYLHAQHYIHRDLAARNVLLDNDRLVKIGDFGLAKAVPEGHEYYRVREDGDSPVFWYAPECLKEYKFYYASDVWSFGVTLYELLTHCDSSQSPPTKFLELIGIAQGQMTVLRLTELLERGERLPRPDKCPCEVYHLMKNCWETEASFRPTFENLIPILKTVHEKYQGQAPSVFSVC
T1 sequence (O60674 whole entry): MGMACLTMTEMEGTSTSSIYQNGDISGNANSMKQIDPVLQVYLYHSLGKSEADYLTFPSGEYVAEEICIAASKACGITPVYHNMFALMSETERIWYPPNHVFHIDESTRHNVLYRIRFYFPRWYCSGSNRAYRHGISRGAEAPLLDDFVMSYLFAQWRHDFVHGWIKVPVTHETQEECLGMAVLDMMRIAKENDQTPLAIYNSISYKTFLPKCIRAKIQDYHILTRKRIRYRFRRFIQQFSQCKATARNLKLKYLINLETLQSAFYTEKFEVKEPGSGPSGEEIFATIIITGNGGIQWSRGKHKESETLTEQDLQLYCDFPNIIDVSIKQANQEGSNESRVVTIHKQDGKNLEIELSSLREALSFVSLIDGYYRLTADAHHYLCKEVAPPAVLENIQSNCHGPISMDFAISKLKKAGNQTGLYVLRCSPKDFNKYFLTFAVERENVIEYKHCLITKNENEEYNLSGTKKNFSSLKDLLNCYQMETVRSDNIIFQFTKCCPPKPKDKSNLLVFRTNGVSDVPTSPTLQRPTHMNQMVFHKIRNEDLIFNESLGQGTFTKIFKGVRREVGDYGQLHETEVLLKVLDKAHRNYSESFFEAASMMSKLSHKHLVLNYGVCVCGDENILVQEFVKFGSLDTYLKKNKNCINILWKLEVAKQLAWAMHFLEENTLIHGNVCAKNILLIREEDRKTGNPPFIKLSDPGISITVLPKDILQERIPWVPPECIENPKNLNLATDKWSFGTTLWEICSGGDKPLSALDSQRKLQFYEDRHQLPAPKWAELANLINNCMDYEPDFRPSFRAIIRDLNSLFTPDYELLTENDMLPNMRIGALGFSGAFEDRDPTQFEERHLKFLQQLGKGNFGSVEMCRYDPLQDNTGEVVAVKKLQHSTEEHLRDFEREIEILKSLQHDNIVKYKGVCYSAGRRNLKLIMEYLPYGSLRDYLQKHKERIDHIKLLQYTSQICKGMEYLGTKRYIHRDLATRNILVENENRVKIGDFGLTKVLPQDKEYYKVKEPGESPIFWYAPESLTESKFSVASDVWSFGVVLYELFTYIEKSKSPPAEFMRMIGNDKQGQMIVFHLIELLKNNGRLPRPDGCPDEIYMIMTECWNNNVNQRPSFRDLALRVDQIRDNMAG
T2 sequence (P23458 whole entry): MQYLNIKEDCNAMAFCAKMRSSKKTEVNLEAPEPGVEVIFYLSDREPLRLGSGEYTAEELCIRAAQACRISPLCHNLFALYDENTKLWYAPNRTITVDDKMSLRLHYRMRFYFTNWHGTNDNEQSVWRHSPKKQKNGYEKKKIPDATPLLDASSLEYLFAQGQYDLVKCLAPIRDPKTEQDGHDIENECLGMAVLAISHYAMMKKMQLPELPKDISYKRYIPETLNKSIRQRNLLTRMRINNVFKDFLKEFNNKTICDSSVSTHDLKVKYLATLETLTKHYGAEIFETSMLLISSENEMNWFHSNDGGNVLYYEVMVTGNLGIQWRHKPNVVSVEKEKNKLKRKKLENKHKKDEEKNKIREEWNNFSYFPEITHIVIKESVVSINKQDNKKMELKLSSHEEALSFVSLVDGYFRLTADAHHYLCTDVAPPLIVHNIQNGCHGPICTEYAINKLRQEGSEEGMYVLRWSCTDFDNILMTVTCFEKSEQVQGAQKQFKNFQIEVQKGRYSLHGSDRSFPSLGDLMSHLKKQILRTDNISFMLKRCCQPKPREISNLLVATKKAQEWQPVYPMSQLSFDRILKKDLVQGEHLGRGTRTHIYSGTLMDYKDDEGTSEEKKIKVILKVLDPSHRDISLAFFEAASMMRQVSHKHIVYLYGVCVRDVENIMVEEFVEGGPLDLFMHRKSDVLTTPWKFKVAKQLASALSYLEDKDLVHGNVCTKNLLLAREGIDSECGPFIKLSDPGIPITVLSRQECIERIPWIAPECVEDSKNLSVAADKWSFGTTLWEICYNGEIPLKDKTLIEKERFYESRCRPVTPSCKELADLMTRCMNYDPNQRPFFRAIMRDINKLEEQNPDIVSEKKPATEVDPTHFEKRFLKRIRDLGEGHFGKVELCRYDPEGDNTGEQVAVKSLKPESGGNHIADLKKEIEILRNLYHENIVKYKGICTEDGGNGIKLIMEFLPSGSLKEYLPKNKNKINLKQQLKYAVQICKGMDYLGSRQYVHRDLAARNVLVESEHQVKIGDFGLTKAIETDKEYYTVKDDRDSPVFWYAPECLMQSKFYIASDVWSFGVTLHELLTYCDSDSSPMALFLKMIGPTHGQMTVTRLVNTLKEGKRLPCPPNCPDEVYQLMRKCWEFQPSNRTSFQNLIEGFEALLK

SMILES | Tall-1 (pIC50) [1, 2] | JAK 2 (pKi) (JAK2) | JAK 1 (pKi) (JAK1) | JAK 3 (pKi) (JAK3) | JAK3 (pKi)-JAK1 (pKi) (JAK3; [3]) | Tyk 2 (pKi) (Tyk2) | Tall-1 (pIC50) [1, 4] | JAK3 (pKi)-JAK1 (pKi) (JAK3; [5]) | IC50 [1, 6] [nM] | Ki (JAK2) [nM] | Ki (JAK1) [nM] | Ki (JAK3) [nM] | Ki (Tyk2) [nM] | IC50 [1, 7] [nM]
C=CC(=O)N1CC(OCc2cc(-c3ccc(O)c(F)c3)cc3[nH]ncc23)C1 [Compound 16-3] | A (a pIC50 value≥7.5 (IC50≤32 nM)) | E (a pKi value of 7 or below (Ki of 100 nM or above)) | E (a pKi value of 7 or below (Ki of 100 nM or above)) | B (a pKi value between 9 and 10 (Ki between 1 nM and 0.1 nM)) | A (a value of 3 or above) | E (a pKi value of 7 or below (Ki of 100 nM or above)) |  |  |  |  |  |  |  | 
C=CC(=O)N1CC(Oc2cc(-c3ccc(O)c(F)c3)cc3[nH]ncc23)C1 [Compound 5-6] |  | E (a pKi value of 7 or below (Ki of 100 nM or above)) | E (a pKi value of 7 or below (Ki of 100 nM or above)) | B (a pKi value between 9 and 10 (Ki between 1 nM and 0.1 nM)) |  | E (a pKi value of 7 or below (Ki of 100 nM or above)) | B (a pIC50 value between 6.7 (included) and 7.5 (IC50 between 200 nM and 32 nM)) | A (a value of 3 or above) |  |  |  |  |  | 
CN(C)C/C=C/C(=O)N1CC(OCc2cc(-c3ccc(O)cc3)cc3[nH]ncc23)C1 [Compound 12-38] |  |  |  |  | A (a value of 3 or above) |  |  |  | 31.6 to 200 | > 100 | > 100 | < 0.1 | > 100 | 
C=CC(=O)N1C[C@@H](Oc2cc(-c3ccc(O)cc3)nc3[nH]ncc23)C[C@H]1C [Compound 1-26] |  |  |  |  |  |  |  | A (a value of 3 or above) |  | > 100 | > 100 | < 0.1 | > 100 | 31.6 to 200
C=CC(=O)N1CC[C@H](Oc2cc(-c3ccc(O)cc3F)cc3[nH]ncc23)C1 [Compound 1-17] |  |  |  |  |  |  |  | A (a value of 3 or above) |  | 10 to 100 | > 100 | 0.1 to 1 | > 100 | < 31.6
C=CC(=O)N1CC[C@H](COc2nc(-c3ccc(O)c(Cl)c3)nc3[nH]ncc23)C1 [Compound 2-11] |  | E (a pKi value of 7 or below (Ki of 100 nM or above)) | E (a pKi value of 7 or below (Ki of 100 nM or above)) | B (a pKi value between 9 and 10 (Ki between 1 nM and 0.1 nM)) |  | E (a pKi value of 7 or below (Ki of 100 nM or above)) | B (a pIC50 value between 6.7 (included) and 7.5 (IC50 between 200 nM and 32 nM)) | A (a value of 3 or above) |  |  |  |  |  | 
C=CC(=O)N1CCO[C@@H](C(=O)Nc2cc(-c3ccc(O)cc3)nc3[nH]ncc23)C1 [Compound 13-19] | B (a pIC50 value between 6.7 (included) and 7.5 (IC50 between 200 nM and 32 nM)) | E (a pKi value of 7 or below (Ki of 100 nM or above)) | E (a pKi value of 7 or below (Ki of 100 nM or above)) | A (a pKi value≥10 (Ki≤0.1 nM)) | A (a value of 3 or above) | E (a pKi value of 7 or below (Ki of 100 nM or above)) |  |  |  |  |  |  |  | 
C=CC(=O)N1CC(C)(COc2cc(-c3ccc(O)cc3)nc3[nH]ncc23)C1 [Compound 3-58] |  | E (a pKi value of 7 or below (Ki of 100 nM or above)) | E (a pKi value of 7 or below (Ki of 100 nM or above)) | A (a pKi value≥10 (Ki≤0.1 nM)) |  | E (a pKi value of 7 or below (Ki of 100 nM or above)) | B (a pIC50 value between 6.7 (included) and 7.5 (IC50 between 200 nM and 32 nM)) | A (a value of 3 or above) |  |  |  |  |  | 
CCSCCNC/C=C/C(=O)N1CC(COc2cc(-c3ccc(O)cc3)cc3[nH]ncc23)C1 [Compound 3-126] |  |  |  |  |  |  |  | A (a value of 3 or above) |  | 10 to 100 | > 100 | < 0.1 | > 100 | 200 to 1000
C=CC(=O)N1CCC(F)(C(=O)Nc2cc(-c3ccc(O)cc3)cc3[nH]ncc23)CC1 [Compound 12-58] |  |  |  |  | A (a value of 3 or above) |  |  |  | 31.6 to 200 | 10 to 100 | > 100 | < 0.1 | > 100 | 
C=CC(=O)N1CC(COc2nc(-c3ccc(O)c(F)c3)nc3[nH]ncc23)C1 [Compound 3-39] |  |  |  |  |  |  |  | A (a value of 3 or above) |  | > 100 | > 100 | < 0.1 | > 100 | 31.6 to 200
C=CC(=O)N1CC(OCc2cc(-c3ccc(O)cc3)cc3[nH]ncc23)C1 [Compound 12-39] |  |  |  |  | A (a value of 3 or above) |  |  |  | < 31.6 | > 100 | > 100 | 0.1 to 1 | > 100 | 
C=CC(=O)N1CC[C@H](Oc2cc(-c3ccc(O)c(F)c3)cc3[nH]ncc23)C1 [Compound 1-5] |  |  |  |  |  |  |  | A (a value of 3 or above) |  | 10 to 100 | > 100 | < 0.1 | > 100 | < 31.6
C=CC(=O)N1CCC(C)(Nc2cc(-c3ccc(O)c(Cl)c3)cc3[nH]ncc23)CC1 [Compound 7-11] | A (a pIC50 value≥7.5 (IC50≤32 nM)) | D (a pKi value between 7 and 8 (Ki between 100 nM and 10 nM)) | E (a pKi value of 7 or below (Ki of 100 nM or above)) | A (a pKi value≥10 (Ki≤0.1 nM)) | A (a value of 3 or above) | E (a pKi value of 7 or below (Ki of 100 nM or above)) |  |  |  |  |  |  |  | 
C=CC(=O)N1CC[C@H](Oc2cc(-c3ccc(O)cc3)cc3[nH]nc(OC)c23)C1 [Compound 1-44] |  |  |  |  |  |  |  | A (a value of 3 or above) |  | > 100 | > 100 | < 0.1 | > 100 | < 31.6
C=CC(=O)N1CCCC(Oc2cc(-c3ccc(O)cc3)cc3[nH]ncc23)C1 (stereo not drawn) [Compound 8-1] | A (a pIC50 value≥7.5 (IC50≤32 nM)) | D (a pKi value between 7 and 8 (Ki between 100 nM and 10 nM)) | E (a pKi value of 7 or below (Ki of 100 nM or above)) | B (a pKi value between 9 and 10 (Ki between 1 nM and 0.1 nM)) | B (a value of 2.3 to 3) | E (a pKi value of 7 or below (Ki of 100 nM or above)) |  |  |  |  |  |  |  | 
C=CC(=O)N1CC[C@H](Oc2cc(-c3ccc(O)cc3)cc3[nH]nc(Cl)c23)C1 [Compound 1-47] |  | E (a pKi value of 7 or below (Ki of 100 nM or above)) | E (a pKi value of 7 or below (Ki of 100 nM or above)) | B (a pKi value between 9 and 10 (Ki between 1 nM and 0.1 nM)) |  | E (a pKi value of 7 or below (Ki of 100 nM or above)) | B (a pIC50 value between 6.7 (included) and 7.5 (IC50 between 200 nM and 32 nM)) | B (a value of 2.3 to 3) |  |  |  |  |  | 
